Results reported in patent US20150250882A1, “Fatty Acid Acylated Amino Acids for Growth Hormone Delivery” (Novo Nordisk Health Care AG, priority 2012, published 2015).
Values belong to the compound of their own block, whether it stands above or below them.

Assays:
HT29-MTX (E12) cells = assay: Transepithelial transport of GH compounds across E12 cell monolayers (Papp); assay type: in vitro ADME; conditions: for Fold increase (Papp of GH A2 + FA-aa relative to GH A2 alone): GH-A2, same procedure: 0.5 mM FA-aa, transport buffer pH 7.4; for effect on permeation / trans-epithelia transport of the growth hormone compounds (in words): GH-A1 and GH-A2; for effect on GH A1 transport (in words): based on fold increase relative to GH A1 alone; for effect on the transportation of GH A2 (in words): fold increase relative to GH A2 alone
Protocol: HT29-MTX (E12) cells (Pharm Res. 2001; 18(8):1138-45 and Pharm Res. 2007; 24(7):1346-56) were grown in Dulbecco's Modified Eagle Medium supplemented with 10% foetal bovine serum (FBS), 1% penicillin/streptomycin, 1% L-glutamine and 1% non-essential amino acids. For the transport assay, E12 cells were seeded onto tissue culture treated polycarbonate filters in 12-well Transwell® plates (1.13 cm2, 0.4 μm pore size) at a density of 10^5 cells per well. Cells were cultured at 37° C. in an atmosphere of 5% CO2 and the culture media was exchange every second day. Transport experiments were performed after 14-18 days in culture.
The amount of GH compound transported from the donor chamber (apical side) to the receiver chamber (basolateral side) was measured.
Before the experiment, the E12 cells are equilibrated for 60 min with transport buffer on both sides of the epithelium. Buffer is then removed and the experiment initiated by adding a test solution to the donor chamber and a corresponding transport buffer to the receiver chamber. Donor samples ([…]) are taken at 0 min and at the end of the experiment. Receiver samples ([…]) are taken at regular intervals such as every 15 min. The study is usually performed in an atmosphere of 5% CO2-95% O2 at 37° C. on a shaking plate (30 rpm).
Transport of [3H]mannitol, a marker for paracellular transport, may be measured, to verify the integrity of the epithelium, using a scintillation counter.
Before and during the experiment the transepithelial electrical resistance (TEER) of the cell monolayers is monitored. The TEER is measured with EVOM™ Epithelial Voltohmmeter connected to Chopsticks.
The transport study was performed as described in General Method D (Example 1). […] […] The permeation (Papp) of a Growth hormone compound in the presence of different FA-aa's was measured and the fold increase (or decrease) compared to the Growth hormone compound alone was calculated.

[1] = Intra intestinal (mid-jejunum) administration of GH compounds with FA-aa to rats, AUC enhancement; assay type: in vivo, Sprague-Dawley rats; conditions: SBTI 2% with C16-sarcosinate 30 mg/ml, FIGS. 5, 6 and 7
Protocol: Each composition is prepared as a 100 pl dosage injected into mid-jejenum of fully anaesthetized overnight fasted Sprague-Dawley rats (n=6, 9 or 18).
At each sampling time 0.25 ml blood is drawn from the tail vein using a 25 G needle. Sampling times are: pre-dose and 0.25, 0.5, 1, 2, 4 and 6 hours after dosing. The blood is sampled into a EDTA coated test tube and stored on ice until centrifugation at 1200×G for 10 min at 4° C. Plasma is transferred to a Micronic tube and stored at −20° C. until analysis.
The limit of detection of the assay was 0.2 nM.
The samples were analysed using a Luminescence Oxygen Channeling Immunoassay (LOCI), a homogenous bead based assay. […] One of the bead reagents is a generic reagent (donor beads) and is coated with streptavidin and contains a photosensitive dye. The second bead reagent (acceptor beads) is coated with an antibody making up the sandwich. […] Illumination of the complex releases singlet oxygen from the donor beads which channels into the acceptor beads and triggers chemiluminescence which is measured in the EnVision plate reader. […]

[2] = Pharmacokinetics (T½) of growth hormone compounds in rats after i.v./s.c. single dose; assay type: in vivo, Sprague Dawley rats; conditions: assay of Example 1.C (i.v. or s.c.)
Protocol: The pharmacokinetic of the compounds of the examples is investigated in male Sprague Dawley rats after intravenous (i.v.) and subcutaneous (s.c.) single dose administration.
Test compounds are diluted to a final concentration of 1 mg/mL in a dilution buffer consisting of: Glycine 20 mg/mL, mannitol 2 mg/mL, NaHCO3 2.5 mg/mL, pH adjusted to 8.2.
The test compounds are studied in male Sprague Dawley rats weighing 250 g. The test compounds are administered as a single injection either i.v. in the tail vein or s.c. in the neck with a 25 G needle at a predetermined dose such as of 15 nmol/rat in volume of 0.1 ml (concentration 150 nmol/ml) or 60 nmol/kg body weight. […]
At each sampling time 0.25 ml blood is drawn from the tail vein using a 25 G needle. The blood is sampled into a EDTA coated test tube and stored on ice until centrifugation at 1200×G for 10 min at 4° C. […]
Test compound concentrations are determined by a sandwich ELISA using a guinea pig anti-hGH polyclonal antibody as catcher, and biotinylated hGH binding-protein (soluble part of human GH receptor) as detector. […]
A non-compartmental pharmacokinetic analysis is performed on mean concentration-time profiles of each test compound using WinNonlin Professional (Pharsight Inc., Mountain View, Calif., USA). The pharmacokinetic parameter estimates of terminal half-life (t1/2) and mean residence time (MRT) are calculated.

Compound: CCCCCCCCCCCC(=O)NCC(=O)O [C12-Gly, N-dodecanoyl-L-glycine]
Fold increase (Papp of GH A2 + FA-aa relative to GH A2 alone) (HT29-MTX (E12) cells): 3.4 fold

Compound: CCCCCCCCCCCCCCCC(=O)N(C)CC(=O)[O-].[Na+] [C16-Sarc, sodium 2-[hexadecanoyl(methyl)amino]acetate]
effect of protease inhibitor on GH absorption enhancing effect of FA-aa (in words) [1]: significantly improved by the presence of an enzyme inhibitor

Compound: wt human growth hormone: human growth hormone identified by SEQ ID NO 1
T ½ [2]: 12 to 14 min

Compound: CCCCCCCCCC(=O)N(C)CC(=O)O [C10-Sarc, N-decanoyl-L-sarcosine]
Fold increase (Papp of GH A2 + FA-aa relative to GH A2 alone) (HT29-MTX (E12) cells): 0.7 fold

Compound: CCCCCCCCCCCCCCCC(=O)NC(CC(=O)O)C(=O)O (stereo not drawn) [C16-(D)-Asp]
Fold increase (Papp of GH A2 + FA-aa relative to GH A2 alone) (HT29-MTX (E12) cells): 1.8 fold

Now from value to compound:

effect on permeation / trans-epithelia transport of the growth hormone compounds (in words) (HT29-MTX (E12) cells): superior effect | effect on GH A1 transport (in words) (HT29-MTX (E12) cells): biggest effect | effect on the transportation of GH A2 (in words) (HT29-MTX (E12) cells): biggest effect
Compound: CCCCCCCCCCCCCCCC(=O)N[C@@H](CCC(=O)[O-])C(=O)[O-].[Na+].[Na+] [C16-Glu, disodium (2S)-2-(hexadecanoylamino)pentanedioate]

effect on permeation / trans-epithelia transport of the growth hormone compounds (in words) (HT29-MTX (E12) cells): superior effect | effect on GH A1 transport (in words) (HT29-MTX (E12) cells): biggest effect | effect on the transportation of GH A2 (in words) (HT29-MTX (E12) cells): biggest effect
Compound: CCCCCCCCCCCCCCCC(=O)N[C@@H](CCC(N)=O)C(=O)[O-].[Na+] [C16-Gln, sodium (2S)-5-amino-5-oxo-2-(hexadecanoylamino)pentanoate]

Fold increase (Papp of GH A2 + FA-aa relative to GH A2 alone) (HT29-MTX (E12) cells): 4.1 fold
Compound: CCCCCCCCCCCCCCCC(=O)NC(CCC(=O)O)C(=O)O [C16-D-Glu]
